Assay results from ChEMBL document CHEMBL1149805, “Antibacterial activity of a novel series of 3-bromo-4-(1H-3-indolyl)-2,5-dihydro-1H-2,5-pyrroledione derivatives--an extended structure-activity relationship study” (Eur J Med Chem, 2008).
≈ marks a conversion by molar mass, not a printed value. Calls of active or inactive are those of the source. The rule behind the calls is not given here.

Legend:
[1] = Partition coefficient, log P of the compound; type: physicochemical; details: octanol/water
[2] = system: Staphylococcus aureus; experiment: Antibacterial activity against Staphylococcus aureus 134/93 after 24 hrs by broth microdilution method; type: functional; details: for MIC: Staphylococcus aureus, 134/93, 24 h
[3] = system: Escherichia coli; experiment: Antibacterial activity against Escherichia coli after 24 hrs by broth microdilution method; type: functional, organism-based
[4] = system: Candida albicans; experiment: Antibacterial activity against Candida albicans after 24 hrs by broth microdilution method; type: functional, organism-based
[5] = system: Mycolicibacterium smegmatis; experiment: Antibacterial activity against Mycobacterium smegmatis SG987 after 24 hrs by broth microdilution method; type: functional; details: for MIC: Mycolicibacterium smegmatis, SG987, 24 h

| SMILES | logP [1] | -logMIC [2] | MIC [2] [µM] | Activity [3] | Activity [4] | -logMIC [5] | MIC [5] [µM] |
| --- | --- | --- | --- | --- | --- | --- | --- |
| O=C(CCCCc1[nH]c2ccccc2c1C1=C(Br)C(=O)NC1=O)Nc1ccccc1 | 2.56 | 5.8 | 1.7 (≈ 0.793 µg/mL) | inactive | inactive | 4.6 | 26 (≈ 12.1 µg/mL) |
| CCOc1ccc2[nH]c(-c3cccc(OC)c3)c(C3=C(Br)C(=O)NC3=O)c2c1 | 2.97 | 5.5 | 3.5 (≈ 1.54 µg/mL) | inactive | inactive | 5.2 | 6.31 (≈ 2.78 µg/mL) |
| Cc1ccc2[nH]c(-c3ccccc3)c(C3=C(Br)C(=O)NC3=O)c2c1 | 2.88 | 6.9 | 0.13 (≈ 0.0496 µg/mL) | inactive | inactive | 5.4 | 4.1 (≈ 1.56 µg/mL) |
| CCCCc1cccc2c(C3=C(Br)C(=O)NC3=O)c(-c3ccc(OC)cc3)[nH]c12 | 3.81 | 6.6 | 0.25 (≈ 0.113 µg/mL) | inactive | inactive |  |  |
| O=C(CCCCCc1[nH]c2ccccc2c1C1=C(Br)C(=O)NC1=O)Nc1ccccc1 | 2.68 | 7 | 0.1 (≈ 0.048 µg/mL) | inactive | inactive | 4.6 | 26 (≈ 12.5 µg/mL) |
| CCCCCCOc1ccc2[nH]c(-c3ccccc3)c(C3=C(Br)C(=O)NC3=O)c2c1 | 4.08 |  |  | inactive | inactive |  |  |
| CCCc1ccc2[nH]c(-c3ccc(OC)cc3)c(C3=C(Br)C(=O)NC3=O)c2c1 | 3.45 | 6.3 | 0.45 (≈ 0.198 µg/mL) | inactive | inactive | 5.7 | 1.8 (≈ 0.791 µg/mL) |
| CCCCCOc1ccc2[nH]c(-c3ccc(OC)cc3)c(C3=C(Br)C(=O)NC3=O)c2c1 | 3.77 |  |  | inactive | inactive |  |  |
| O=C(CCCc1[nH]c2ccccc2c1C1=C(Br)C(=O)NC1=O)Nc1ccccc1 | 2.56 | 5.8 | 1.7 (≈ 0.769 µg/mL) | inactive | inactive | 4.3 | 55 (≈ 24.9 µg/mL) |
| O=C(O)c1cn(C2CC2)c2cc(N3CCNCC3)c(F)cc2c1=O [CIPROFLOXACIN] |  | 4.4 | 38.1 (≈ 12.6 µg/mL) |  |  | 5.9 | 1.2 (≈ 0.398 µg/mL) |
| CCCCOc1ccc2[nH]c(-c3cccc(OC)c3)c(C3=C(Br)C(=O)NC3=O)c2c1 | 3.46 | 5.5 | 3.3 (≈ 1.55 µg/mL) | inactive | inactive | 5.2 | 6.31 (≈ 2.96 µg/mL) |
| CCCCCOc1ccc2[nH]c(-c3ccccc3)c(C3=C(Br)C(=O)NC3=O)c2c1 | 3.75 | 4.6 | 27 (≈ 12.2 µg/mL) | inactive | inactive | 4.6 | 27.5 (≈ 12.5 µg/mL) |
| CCCCc1ccc2[nH]c(-c3cccc(OC)c3)c(C3=C(Br)C(=O)NC3=O)c2c1 | 3.81 | 5.5 | 3.4 (≈ 1.54 µg/mL) | inactive | inactive | 5.5 | 3.16 (≈ 1.43 µg/mL) |
| CCCCc1cccc2c(C3=C(Br)C(=O)NC3=O)c(-c3ccccc3)[nH]c12 | 3.88 | 6.6 | 0.25 (≈ 0.106 µg/mL) | inactive | inactive | 4.8 | 14.7 (≈ 6.22 µg/mL) |
| CCCCCCOc1ccc2[nH]c(-c3ccc(OC)cc3)c(C3=C(Br)C(=O)NC3=O)c2c1 | 4.1 |  |  | inactive | inactive |  |  |
| CCCCOc1ccc2[nH]c(-c3ccc(OC)cc3)c(C3=C(Br)C(=O)NC3=O)c2c1 | 3.43 | 7 | 0.1 (≈ 0.0469 µg/mL) | inactive | inactive |  |  |
| CCCCCCOc1ccc2[nH]c(-c3cccc(OC)c3)c(C3=C(Br)C(=O)NC3=O)c2c1 | 3.92 | 4.9 | 12.6 (≈ 6.27 µg/mL) | inactive | inactive | 5.2 | 6.31 (≈ 3.14 µg/mL) |
| CCc1ccc2[nH]c(-c3ccccc3)c(C3=C(Br)C(=O)NC3=O)c2c1 | 3.15 | 6.9 | 0.13 (≈ 0.0514 µg/mL) | inactive | inactive | 5.4 | 4 (≈ 1.58 µg/mL) |
| CCc1ccc2[nH]c(-c3ccc(OC)cc3)c(C3=C(Br)C(=O)NC3=O)c2c1 | 3.23 | 6.6 | 0.23 (≈ 0.0978 µg/mL) | inactive | inactive | 5.4 | 3.67 (≈ 1.56 µg/mL) |
| CCCc1cccc2c(C3=C(Br)C(=O)NC3=O)c(-c3ccc(OC)cc3)[nH]c12 | 3.58 | 6.3 | 0.5 (≈ 0.22 µg/mL) | inactive | inactive | 4.8 | 14.2 (≈ 6.24 µg/mL) |

| SMILES | logP [1] | -logMIC [2] | MIC [2] [µM] | Activity [3] | Activity [4] | -logMIC [5] | MIC [5] [µM] |
| --- | --- | --- | --- | --- | --- | --- | --- |
| O=C1NC(=O)C(c2c(-c3ccc(OCc4cccc5ccccc45)cc3)[nH]c3ccccc23)=C1Br | 3.76 | 5.8 | 1.5 (≈ 0.785 µg/mL) | inactive | inactive | 5.5 | 3.16 (≈ 1.65 µg/mL) |
| CCCCCc1cccc2c(C3=C(Br)C(=O)NC3=O)c(-c3ccccc3)[nH]c12 | 4.11 | 6.3 | 0.5 (≈ 0.219 µg/mL) | inactive | inactive | 4.9 | 14.3 (≈ 6.25 µg/mL) |
| CCCCCOc1ccc(-c2[nH]c3ccccc3c2C2=C(Br)C(=O)NC2=O)cc1 | 4.2 | 6.1 | 0.88 (≈ 0.399 µg/mL) | inactive | inactive | 3.9 | 126 (≈ 57.1 µg/mL) |
| COc1ccc(-c2[nH]c3ccc(C)cc3c2C2=C(Br)C(=O)NC2=O)cc1 | 2.85 | 6.9 | 0.12 (≈ 0.0494 µg/mL) | inactive | inactive | 5.1 | 7.6 (≈ 3.13 µg/mL) |
| CCCCOc1ccc(-c2[nH]c3ccccc3c2C2=C(Br)C(=O)NC2=O)cc1 | 3.87 | 6.3 | 0.45 (≈ 0.198 µg/mL) | inactive | inactive | 4.8 | 15.8 (≈ 6.96 µg/mL) |
| Cc1cccc2c(C3=C(Br)C(=O)NC3=O)c(-c3ccccc3)[nH]c12 | 3.19 | 5.4 | 3.98 (≈ 1.52 µg/mL) | inactive | inactive | 4.5 | 32.6 (≈ 12.4 µg/mL) |
| COc1ccc2[nH]c(-c3ccccc3)c(C3=C(Br)C(=O)NC3=O)c2c1 | 2.48 | 6 | 1 (≈ 0.397 µg/mL) | inactive | inactive | 4.5 | 31.5 (≈ 12.5 µg/mL) |
| CCCCCCCCCCOc1ccc(-c2[nH]c3ccccc3c2C2=C(Br)C(=O)NC2=O)cc1 | 5.94 |  |  | inactive | inactive | 4 | 100 (≈ 52.3 µg/mL) |
| CCCCCCc1ccc2[nH]c(-c3ccccc3)c(C3=C(Br)C(=O)NC3=O)c2c1 | 4.39 |  |  | inactive | inactive |  |  |
| CCCOc1ccc2[nH]c(-c3ccc(OC)cc3)c(C3=C(Br)C(=O)NC3=O)c2c1 | 3.12 | 6.4 | 0.44 (≈ 0.2 µg/mL) | inactive | inactive |  |  |
| CCc1cccc2c(C3=C(Br)C(=O)NC3=O)c(-c3ccc(OC)cc3)[nH]c12 | 3.35 | 6.3 | 0.5 (≈ 0.213 µg/mL) | inactive | inactive | 4.5 | 29.4 (≈ 12.5 µg/mL) |
| CCCCCc1ccc2[nH]c(-c3ccc(OC)cc3)c(C3=C(Br)C(=O)NC3=O)c2c1 | 4.1 | 6.1 | 0.85 (≈ 0.397 µg/mL) | inactive | inactive | 5.5 | 3.3 (≈ 1.54 µg/mL) |
| CCCCOc1ccc2[nH]c(-c3ccccc3)c(C3=C(Br)C(=O)NC3=O)c2c1 | 3.42 | 6.9 | 0.11 (≈ 0.0483 µg/mL) | inactive | inactive | 4.5 | 28.4 (≈ 12.5 µg/mL) |
| CCc1cccc2c(C3=C(Br)C(=O)NC3=O)c(-c3ccccc3)[nH]c12 | 3.42 | 5.7 | 2.51 (≈ 0.992 µg/mL) | inactive | inactive | 4.5 | 31.7 (≈ 12.5 µg/mL) |
| CCCCCCCCOc1ccc(-c2[nH]c3ccccc3c2C2=C(Br)C(=O)NC2=O)cc1 | 5.21 | 4.3 | 50 (≈ 24.8 µg/mL) | inactive | inactive | 4 | 100 (≈ 49.5 µg/mL) |
| Cc1ccccc1NC(=O)CCCc1[nH]c2ccccc2c1C1=C(Br)C(=O)NC1=O | 2.56 | 6.5 | 0.32 (≈ 0.149 µg/mL) | inactive | inactive | 4.8 | 17.1 (≈ 7.97 µg/mL) |
| CCCCCCc1ccc2[nH]c(-c3cccc(OC)c3)c(C3=C(Br)C(=O)NC3=O)c2c1 | 4.26 | 4.6 | 26 (≈ 12.5 µg/mL) | inactive | inactive | 5.2 | 6.31 (≈ 3.04 µg/mL) |
| CCCCCCc1ccc2[nH]c(-c3ccc(OC)cc3)c(C3=C(Br)C(=O)NC3=O)c2c1 |  |  |  | inactive | inactive |  |  |
| CCCCCCc1cccc2c(C3=C(Br)C(=O)NC3=O)c(-c3ccc(OC)cc3)[nH]c12 | 4.27 | 6.4 | 0.4 (≈ 0.193 µg/mL) | inactive | inactive |  |  |
